SMILES strings stand for the structures. Counter-ions that a name gives are not always drawn. Where only a bound is given, the exact number is not on record here.

Experiment [1] has as its target wild-type EZH2 (PRC2 enzyme) (Homo sapiens (Human), UniProt Q15910). The experiment can be described thus: PRC2 enzyme assay on peptide substrate, wild-type EZH2 (H3K27me0 peptide, 3H-SAM Flashplate). Particulars: wild-type PRC2 4 nM, read-out: WT EZH2 IC50. The format is biochemical.
A further experiment concerns WSU-DLCL2 cells. The experiment can be described thus: Cell proliferation analysis, WSU-DLCL2 (Cell Titer Glo). The format is cell-based. Particulars: Homo sapiens, WSUDLCL2, 144 h, 6 days incubation, ATP readout. An excerpt:
Cell Proliferation Analysis
WSU-DLCL2 suspension cells were purchased from DSMZ (German Collection of Microorganisms and Cell Cultures, Braunschweig, Germany), RPMI/Glutamax Medium, Penicillin-Streptomycin, Heat Inactivated Fetal Bovine Serum were purchased from Life Technologies, Grand Island, N.Y., USA, V-bottom polypropylene 384-well plates were purchased from Greiner Bio-One, Monroe, N.C., USA. Cell culture 384-well white opaque plates were purchased from Perkin Elmer, Waltham, Mass., USA. Cell-Titer Glo® was purchased from Promega Corporation, Madison, Wis., USA. SpectraMax M5 plate reader was purchased from Molecular Devices LLC, Sunnyvale, Calif., USA.
WSU-DLCL2 suspension cells were maintained in growth medium (RPMI 1640 supplemented with 10% v/v heat inactivated fetal bovine serum and cultured at 37° C. under 5% CO2. Under assay conditions, cells were incubated in Assay Medium (RPMI 1640 supplemented with 20% v/v heat inactivated fetal bovine serum and 100 units/mL penicillin-streptomycin) at 37° C. under 5% CO2.
For the assessment of the effect of compounds on the proliferation of the WSU-DLCL2 cell line, exponentially growing cells were plated in 384-well white opaque plates at a density of 1250 cell/ml in a final volume of 50 μl of assay medium. A compound source plate was prepared by performing triplicate nine-point 3-fold serial dilutions in DMSO, beginning at 10 mM (final top concentration of compound in the assay was 20 μM and the DMSO was 0.2%). A 100 nL aliquot from the compound stock plate was added to its respective well in the cell plate. […] After addition of compounds, assay plates were incubated for 6 days at 37° C., 5% CO2, relative humidity >90% for 6 days. Cell viability was measured by quantization of ATP present in the cell cultures, adding 35 μl of Cell Titer Glo® reagent to the cell plates. Luminescence was read in the SpectraMax M5. The concentration inhibiting cell viability by 50% was determined using a 4-parametric fit of the normalized dose response curves.
In general terms: In ATP-based viability assays light output follows the ATP content of the culture.

The target of experiment [2] is EZH2 Y641F mutant (PRC2 enzyme) (Homo sapiens (Human), UniProt Q15910, Y641F). The experiment can be described thus: PRC2 enzyme assay on peptide substrate, EZH2 Y641F mutant (H3K27me2 peptide, 3H-SAM Flashplate). The format is biochemical. The following applies: Y641F mutant PRC2 4 nM.
Experiment [3] deals with H3K27me3 in WSU-DLCL2 cells. The experiment can be described thus: WSU-DLCL2 methylation assay (H3K27me3 ELISA). The format is cell-based, human. Particulars: Homo sapiens, WSUDLCL2, 96 hours incubation, H3K27me3 normalised to total H3.
Source text: WSU-DLCL2 Methylation Assay
WSU-DLCL2 suspension cells were purchased from DSMZ (German Collection of Microorganisms and Cell Cultures, Braunschweig, Germany). RPMI/Glutamax Medium, Penicillin-Streptomycin, Heat Inactivated Fetal Bovine Serum, and D-PBS were purchased from Life Technologies, Grand Island, N.Y., USA. Extraction Buffer and Neutralization Buffer (5×) were purchased from Active Motif, Carlsbad, Calif., USA. Rabbit anti-Histone H3 antibody was purchased from Abcam, Cambridge, Mass., USA. Rabbit anti-H3K27me3 and HRP-conjugated anti-rabbit-IgG were purchased from Cell Signaling Technology, Danvers, Mass., USA. TMB “Super Sensitive” substrate was sourced from BioFX Laboratories, Owings Mills, Md., USA. IgG-free Bovine Serum Albumin was purchased from Jackson ImmunoResearch, West Grove, Pa., USA. PBS with Tween (10×PBST) was purchased from KPL, Gaithersburg, Md., USA. Sulfuric Acid was purchased from Ricca Chemical, Arlington, Tex., USA. Immulon ELISA plates were purchased from Thermo, Rochester, N.Y., USA. V-bottom cell culture plates were purchased from Corning Inc., Corning, N.Y., USA. V-bottom polypropylene plates were purchased from Greiner Bio-One, Monroe, N.C., USA.
WSU-DLCL2 suspension cells were maintained in growth medium (RPMI 1640 supplemented with 10% v/v heat inactivated fetal bovine serum and 100 units/mL penicillin-streptomycin) and cultured at 37° C. under 5% CO2. Under assay conditions, cells were incubated in Assay Medium (RPMI 1640 supplemented with 20% v/v heat inactivated fetal bovine serum and 100 units/mL penicillin-streptomycin) at 37° C. under 5% CO2 on a plate shaker.
WSU-DLCL2 cells were seeded in assay medium at a concentration of 50,000 cells per mL to a 96-well V-bottom cell culture plate with 200 μL per well. […] Plates were incubated on a titer-plate shaker at 37° C., 5% CO2 for 96 hours. After four days of incubation, plates were spun at 241×g for five minutes and medium was aspirated gently from each well of cell plate without disturbing cell pellet. Pellet was resuspended in: 200 μL DPBS and plates were spun again at 241×g for five minutes. The supernatant was aspirated and cold (4° C.) Extraction buffer (100 μL) was added per well. Plates were incubated at 4° C. on orbital shaker for two hours. Plates were spun at 3427×g×10 minutes. Supernatant (80 μL per well) was transferred to its respective well in 96 well V-bottom polypropylene plate. Neutralization Buffer 5× (20 μL per well) was added to V-bottom polypropylene plate containing supernatant. V-bottom polypropylene plates containing crude histone preparation (CHP) were incubated on orbital shaker×five minutes. Crude Histone Preparations were added (2 μL per well) to each respective well into duplicate 96 well ELISA plates containing 100 μL Coating Buffer (1×PBS+BSA 0.05% w/v). Plates were sealed and incubated overnight at 4° C. The following day, plates were washed three times with 300 μL per well 1×PBST. […] For H3K27me3 detection, 100 μL of HRP conjugated anti-rabbit IgG antibody diluted to 1:4000 in ELISA diluent was added per well. Plates were incubated at room temperature for 90 minutes. […] TMB substrate 100 μL was added per well. Histone H3 plates were incubated for five minutes at room temperature. H3K27me3 plates were incubated for 10 minutes at room temperature. The reaction was stopped with sulfuric acid 1N (100 μL per well). Absorbance for each plate was read at 450 nm.
Each plate included eight control wells DMSO only treatment (Minimum Inhibition) as well as eight control wells for maximum inhibition (Background wells).
The average of the ratio values for each control type was calculated and used to determine the percent inhibition for each test well in the plate. Test compound was serially diluted three-fold in DMSO for a total of ten test concentrations, beginning at 25 μM.

wild-type EZH2 (PRC2 enzyme), sequence (Q15910 whole entry): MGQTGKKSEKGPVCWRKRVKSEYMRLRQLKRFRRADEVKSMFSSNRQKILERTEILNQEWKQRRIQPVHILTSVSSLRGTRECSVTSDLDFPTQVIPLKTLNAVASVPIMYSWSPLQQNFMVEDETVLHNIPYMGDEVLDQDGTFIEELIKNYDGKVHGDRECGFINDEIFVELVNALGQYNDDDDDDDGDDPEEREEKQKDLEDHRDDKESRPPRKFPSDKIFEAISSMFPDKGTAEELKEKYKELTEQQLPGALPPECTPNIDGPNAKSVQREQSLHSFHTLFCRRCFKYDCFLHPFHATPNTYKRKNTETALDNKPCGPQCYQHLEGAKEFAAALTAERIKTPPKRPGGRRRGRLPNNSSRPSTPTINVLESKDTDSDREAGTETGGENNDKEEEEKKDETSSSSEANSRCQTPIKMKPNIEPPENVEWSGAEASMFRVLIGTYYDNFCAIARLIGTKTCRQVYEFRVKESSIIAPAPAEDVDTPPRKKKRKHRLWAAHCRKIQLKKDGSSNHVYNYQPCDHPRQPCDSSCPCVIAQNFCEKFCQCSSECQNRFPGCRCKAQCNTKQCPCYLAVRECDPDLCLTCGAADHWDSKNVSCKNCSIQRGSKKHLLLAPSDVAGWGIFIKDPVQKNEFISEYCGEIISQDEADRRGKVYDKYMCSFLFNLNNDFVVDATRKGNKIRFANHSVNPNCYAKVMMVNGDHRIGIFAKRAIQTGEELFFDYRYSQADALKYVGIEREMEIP
wild-type EZH2 (PRC2 enzyme), sequence (O75530 whole entry partner): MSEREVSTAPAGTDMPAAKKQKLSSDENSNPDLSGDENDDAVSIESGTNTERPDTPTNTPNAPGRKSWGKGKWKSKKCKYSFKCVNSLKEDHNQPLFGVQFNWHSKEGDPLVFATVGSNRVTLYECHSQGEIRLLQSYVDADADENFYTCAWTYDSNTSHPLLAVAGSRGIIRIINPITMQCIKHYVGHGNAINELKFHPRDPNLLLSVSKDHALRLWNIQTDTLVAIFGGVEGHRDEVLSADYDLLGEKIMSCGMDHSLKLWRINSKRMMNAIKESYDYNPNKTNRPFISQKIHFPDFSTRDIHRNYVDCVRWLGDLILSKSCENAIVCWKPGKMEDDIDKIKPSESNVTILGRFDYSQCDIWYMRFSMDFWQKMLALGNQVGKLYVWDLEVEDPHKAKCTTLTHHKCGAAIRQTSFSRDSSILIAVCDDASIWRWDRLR
wild-type EZH2 (PRC2 enzyme), sequence (Q15022 whole entry partner): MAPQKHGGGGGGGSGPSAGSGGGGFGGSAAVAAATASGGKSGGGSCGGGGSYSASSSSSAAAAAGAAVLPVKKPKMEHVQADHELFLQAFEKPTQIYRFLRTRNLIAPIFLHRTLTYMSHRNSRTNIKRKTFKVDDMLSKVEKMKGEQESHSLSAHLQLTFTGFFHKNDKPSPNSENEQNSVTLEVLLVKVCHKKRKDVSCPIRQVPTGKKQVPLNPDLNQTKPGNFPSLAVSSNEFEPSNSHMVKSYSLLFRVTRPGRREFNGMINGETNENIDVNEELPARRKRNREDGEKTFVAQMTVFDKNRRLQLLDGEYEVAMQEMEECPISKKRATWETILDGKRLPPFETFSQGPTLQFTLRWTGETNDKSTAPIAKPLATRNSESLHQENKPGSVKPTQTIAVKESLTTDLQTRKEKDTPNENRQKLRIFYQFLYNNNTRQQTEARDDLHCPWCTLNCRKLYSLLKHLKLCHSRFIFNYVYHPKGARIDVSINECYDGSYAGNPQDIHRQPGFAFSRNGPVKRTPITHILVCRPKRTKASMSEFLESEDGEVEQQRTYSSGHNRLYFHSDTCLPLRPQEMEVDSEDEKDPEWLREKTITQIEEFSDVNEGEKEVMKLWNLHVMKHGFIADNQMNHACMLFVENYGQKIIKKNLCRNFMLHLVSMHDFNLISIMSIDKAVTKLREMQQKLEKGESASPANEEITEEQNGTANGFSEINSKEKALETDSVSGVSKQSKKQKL
wild-type EZH2 (PRC2 enzyme), sequence (Q09028 whole entry partner): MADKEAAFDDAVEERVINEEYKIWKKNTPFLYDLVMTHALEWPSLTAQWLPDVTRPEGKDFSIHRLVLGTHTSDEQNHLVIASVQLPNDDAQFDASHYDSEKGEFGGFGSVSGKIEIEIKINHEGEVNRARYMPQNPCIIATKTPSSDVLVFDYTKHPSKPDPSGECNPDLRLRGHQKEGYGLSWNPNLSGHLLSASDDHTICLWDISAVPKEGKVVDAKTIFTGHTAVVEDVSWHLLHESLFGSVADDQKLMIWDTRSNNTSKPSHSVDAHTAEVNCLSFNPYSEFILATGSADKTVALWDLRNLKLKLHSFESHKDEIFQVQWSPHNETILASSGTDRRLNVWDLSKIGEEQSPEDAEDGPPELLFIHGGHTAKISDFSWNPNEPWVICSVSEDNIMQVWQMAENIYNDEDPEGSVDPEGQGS
EZH2 Y641F mutant (PRC2 enzyme), sequence (Q15910 whole entry Y641F): as the sequence (Q15910 whole entry) above, with Y641F counted along it
EZH2 Y641F mutant (PRC2 enzyme), sequence (O75530 whole entry partner): as the sequence (O75530 whole entry partner) above
EZH2 Y641F mutant (PRC2 enzyme), sequence (Q15022 whole entry partner): as the sequence (Q15022 whole entry partner) above
EZH2 Y641F mutant (PRC2 enzyme), sequence (Q09028 whole entry partner): as the sequence (Q09028 whole entry partner) above

A word on the IC50: it is the point on the concentration scale where inhibition reaches its midpoint. With `CCN(c1cc(Cl)cc(C(=O)NCc2c(C)[nH]n(C)c2=O)c1C)[C@@H]1COC[C@H]1OC` (relative stereo) [Compound 42, 5-chloro-N-((2,5-dimethyl-3-oxo-2,3-dihydro-1H-pyrazol-4-yl)methyl)-3-(ethyl((trans)-4-methoxytetrahydrofuran-3-yl)amino)-2-methylbenzamide], the IC50 in experiment [1] was greater than 50000 nM; with WSU-DLCL2 cells, greater than 20000 nM.

In the case of `CCN(c1cc(Cl)cc(C(=O)NCc2c(CCN(C)C)cc3n(c2=O)NCC3)c1C)[C@H]1CC[C@H](N(C)C)CC1` [Compound 1, 5-chloro-3-(((trans)-4-(dimethylamino)cyclohexyl)(ethyl)amino)-N-((5-(2-(dimethylamino)ethyl)-7-oxo-1,2,3,7-tetrahydropyrazolo[1,5-a]pyridin-6-yl)methyl)-2-methylbenzamide], 850 nM corresponded to half-maximal inhibition with WSU-DLCL2 cells (IC50).

As for `CCN(c1cc(Cl)cc(C(=O)NCc2c(C)[nH][nH]c2=O)c1C)[C@H]1CC[C@H](N(C)C)CC1` [Compound 32, 5-chloro-3-(ethyl((trans)-4-(dimethylamino)cyclohexyl)amino)-2-methyl-N-((5-methyl-3-oxo-2,3-dihydro-1H-pyrazol-4-yl)methyl]benzamide Formate], the IC50 stood at 68 nM in experiment [1], 15 nM in experiment [2], 15400 nM in experiment [3] and 11500 nM in the experiment with WSU-DLCL2 cells.

For `CCN(c1cc(Cl)cc(C(=O)NCc2c(C)[nH]n(C)c2=O)c1C)[C@H]1CC[C@H](N(C)C)CC1` [Compound 34, 5-chloro-N-((2,5-dimethyl-3-oxo-2,3-dihydro-1H-pyrazol-4-yl)methyl)-3-(((trans)-4-(dimethylamino)cyclohexyl)(ethyl)amino)-2-methylbenzamide], the IC50 in experiment [1] was 223 nM; in experiment [2], 110 nM; in experiment [3], 18600 nM; with WSU-DLCL2 cells, 6920 nM.

Take `CCN(c1cc(-c2ccc(OCCOC)cc2)cc(C(=O)NCc2c(C)[nH]n(C)c2=O)c1C)[C@H]1CC[C@H](N(C)C)CC1` [Compound 35, N-((2,5-dimethyl-3-oxo-2,3-dihydro-1H-pyrazol-4-yl)methyl)-5-(((trans)-4-(dimethylamino)cyclohexyl)(ethyl)amino)-4′-(2-methoxyethoxy)-4-methyl-[1,1′-biphenyl]-3-carboxamide]: the half-inhibitory concentration (IC50) was 267 nM in experiment [1], 63 nM in experiment [2], 17900 nM in experiment [3] and greater than 20000 nM in the experiment with WSU-DLCL2 cells.

For `CCn1[nH]c(C)c(CNC(=O)c2cc(Cl)cc(N(CC)[C@H]3CC[C@H](N(C)C)CC3)c2C)c1=O` [Compound 36, 5-chloro-3-(((trans)-4-(dimethylamino)cyclohexyl)(ethyl)amino)-N-((2-ethyl-5-methyl-3-oxo-2,3-dihydro-1H-pyrazol-4-yl)methyl)-2-methylbenzamide], the IC50 in experiment [1] is 829 nM; in experiment [2] it was 114 nM; in experiment [3], 7970 nM; with WSU-DLCL2 cells, greater than 20000 nM.

On to `CCc1[nH]n(C)c(=O)c1CNC(=O)c1cc(Cl)cc(N(CC)[C@H]2CC[C@H](N(C)C)CC2)c1C` [Compound 38, 5-chloro-3-(((trans)-4-(dimethylamino)cyclohexyl)(ethyl)amino)-N-((5-ethyl-2-methyl-3-oxo-2,3-dihydro-1H-pyrazol-4-yl)methyl)-2-methylbenzamide], for which the IC50 in experiment [1] is 3370 nM; in experiment [2], 265 nM; in experiment [3], 18100 nM; in the experiment with WSU-DLCL2 cells, greater than 20000 nM.

Take `CCN(c1cc(Cl)cc(C(=O)NCc2c(=O)[nH]n3cccnc23)c1C)[C@H]1CC[C@H](N(C)C)CC1` [Compound 51, 5-chloro-3-(((trans)-4-(dimethylamino)cyclohexyl)(ethyl)amino)-2-methyl-N-((2-oxo-1,2-dihydropyrazolo-[1,5-a]-pyrimidin-3-yl)methyl)benzamide]: the half-maximal inhibitory concentration (IC50) in experiment [1] was 2870 nM; in experiment [2] it was 573 nM; with WSU-DLCL2 cells it was greater than 20000 nM.

In the case of `CCn1[nH]c(=O)c(CNC(=O)c2cc(Cl)cc(N(CC)[C@H]3CC[C@H](N(C)C)CC3)c2C)c1C` [Compound 52, 5-chloro-3-(((trans)-4-(dimethylamino)cyclohexyl)(ethyl)amino)-N-((1-ethyl-5-methyl-3-oxo-2,3-dihydro-1H-pyrazol-4-yl)methyl)-2-methylbenzamide], the IC50 in experiment [1] was determined as 367 nM; in experiment [2], 30 nM; in experiment [3] it was 3040 nM; in the experiment on WSU-DLCL2 cells it was 7340 nM.

As for `CCN(c1cc(Cl)cc(C(=O)NCc2c(C)n(C)[nH]c2=O)c1C)[C@H]1CC[C@H](N(C)Cc2ccc(OC)cc2)CC1` [Compound 56, 5-chloro-N-((1,5-dimethyl-3-oxo-2,3-dihydro-1H-pyrazol-4-yl)methyl)-3-(ethyl((trans)-4-((4-methoxybenzyl)(methyl)amino)cyclohexyl)amino)-2-methylbenzamide], the IC50 in experiment [1] was 25 nM; in experiment [2] it was 11 nM; in experiment [3] it was 4680 nM; with WSU-DLCL2 cells it was 10700 nM.

For the molecule `CCN(c1cc(Cl)cc(C(=O)NCc2c(C)n(C)[nH]c2=O)c1C)[C@H]1CC[C@H](N(C)Cc2cccc(OC)c2)CC1` [Compound 57, 5-chloro-N-((1,5-dimethyl-3-oxo-2,3-dihydro-1H-pyrazol-4-yl)methyl)-3-(ethyl((trans)-4-((3-methoxybenzyl)(methyl)amino)cyclohexyl)amino)-2-methylbenzamide], the IC50 in experiment [1] came out at 20 nM; in experiment [2], 10 nM; in experiment [3], 6160 nM; in the experiment with WSU-DLCL2 cells, 6050 nM.

Take `CCCN(c1cc(-c2ccc(OCCOC)cc2)cc(C(=O)NCc2c(C)n(C)[nH]c2=O)c1C)[C@H]1CC[C@H](N(C)C)CC1` [Compound 58, N-((1,5-dimethyl-3-oxo-2,3-dihydro-1H-pyrazol-4-yl)methyl)-5-(((trans)-4-(dimethylamino)cyclohexyl)(propyl)amino)-4′-(2-methoxyethoxy)-4-methyl-[1,1′-biphenyl]-3-carboxamide]: the figures for the half-maximal inhibitory concentration (IC50) (in experiment [1]; in experiment [2]; in the experiment on WSU-DLCL2 cells) were 1540 nM, 342 nM and 14300 nM, respectively.

On to `CCN(c1cc(-c2ccc(OCCOC)cc2)cc(C(=O)NCc2c(C)n(C)[nH]c2=O)c1C)[C@H]1CC[C@H](N(C)C)CC1` [Compound 59, N-((1,5-dimethyl-3-oxo-2,3-dihydro-1H-pyrazol-4-yl)methyl)-5-(((trans)-4-(dimethylamino)cyclohexyl)(ethyl)amino)-4′-(2-methoxyethoxy)-4-methyl-[1,1′-biphenyl]-3-carboxamide], for which the IC50 in experiment [3] is greater than 50000 nM; in the experiment on WSU-DLCL2 cells, greater than 20000 nM.

Regarding `CCN(c1cc(-c2ccc(OCCOC)cc2)cc(C(=O)NCc2c(C)n(C)[nH]c2=O)c1C)[C@H]1CC[C@H](N(C)CCOC)CC1` [Compound 60, N-((1,5-dimethyl-3-oxo-2,3-dihydro-1H-pyrazol-4-yl)methyl)-5-(ethyl((trans)-4-((2-methoxyethyl)(methyl)amino)cyclohexyl)amino)-4′-(2-methoxyethoxy)-4-methyl-[1,1′-biphenyl]-3-carboxamide], the values for the half-maximal inhibitory concentration (IC50) (in experiment [1]; in experiment [2]; in the experiment with WSU-DLCL2 cells) were 2110 nM, 695 nM and 13500 nM, respectively.

(Values after patent US10150764B2, “Substituted benzene compounds” (Epizyme, Inc., priority 2013, dated 2018).)
